Measurements as given in patent US20260108527A1, “POLO LIKE KINASE 4 INHIBITORS” (ORIC Pharmaceuticals, Inc., priority 2022, published 2026).

What was measured:
[1] = target: T1, human recombinant Aurora B (Homo sapiens, UniProt Q96GD4); assay: Aurora B Kinase Biochemical Assay (ADP-Glo); conditions: selectivity ratio; Aurora B 10 nM, 114 μM ATP
T1 construct: purchased ThermoFisher PR9210B
Experimental: Activity of human recombinant Aurora B (ThermoFisher, cat #PR9210B) was measured by quantification of adenosine diphosphate (ADP) using the ADP-Glo Kinase Assay Kit (Promega, cat #V9102). Test compounds were solubilized in dimethyl sulfoxide (DMSO) and dispensed into 384-well white polystyrene nonbinding plates (Greiner, cat #781094) using the Echo acoustic dispenser (Labcyte Inc.) in a 11-point 3-fold titration in duplicates. 5 μL of 20 nM Aurora B in assay buffer (50 mM HEPES, pH 7.5, 0.01% Brij-35, 0.01% BSA, 10 mM MgCl2, 1 mM EGTA, 1 mM DTT) was added to the plates. Test compounds and Aurora B were incubated for 15 minutes at room temperature (RT). Then 5 μL of a 228 μM adenosine triphosphate (ATP) (Promega, cat #V915B) and 9.3 μM Myelin Basic Protein (MBP) (SignalChem, cat #M42-51N) substrate solution in assay buffer was added and the reaction mixture was incubated for 2 hours at RT. The final concentration of Aurora b, ATP and MBP in the reactions were 10 nM, 114 μM and 4.7 μM, respectively. Reactions were stopped and the remaining ATP depleted by adding 10 μL of ADP-Glo reagent (Promega, cat #V912B) and incubating for 40 minutes at RT. The simultaneous conversion of the remaining ADP to ATP and measurement of the newly synthesized ATP was achieved by addition of 20 μL Kinase Detection reagent (Promega, cat #V9141B), incubation for 30 min at RT, and luminescence detection using the EnVision plate reader (PerkinElmer). Reactions lacking Aurora B were used as […]. Reactions containing DMSO alone were used as […]. The IC50 values reported in Table 2 were determined using four parameter non-linear regression curve fit.

[2] = target: T2, human recombinant Aurora A (Homo sapiens, UniProt O14965); assay: Aurora A Kinase Biochemical Assay (ADP-Glo); conditions: selectivity ratio; Aurora A 2.5 nM, 20 μM ATP
T2 construct: purchased ThermoFisher PR5935A
T2 sequence (O14965 1-403): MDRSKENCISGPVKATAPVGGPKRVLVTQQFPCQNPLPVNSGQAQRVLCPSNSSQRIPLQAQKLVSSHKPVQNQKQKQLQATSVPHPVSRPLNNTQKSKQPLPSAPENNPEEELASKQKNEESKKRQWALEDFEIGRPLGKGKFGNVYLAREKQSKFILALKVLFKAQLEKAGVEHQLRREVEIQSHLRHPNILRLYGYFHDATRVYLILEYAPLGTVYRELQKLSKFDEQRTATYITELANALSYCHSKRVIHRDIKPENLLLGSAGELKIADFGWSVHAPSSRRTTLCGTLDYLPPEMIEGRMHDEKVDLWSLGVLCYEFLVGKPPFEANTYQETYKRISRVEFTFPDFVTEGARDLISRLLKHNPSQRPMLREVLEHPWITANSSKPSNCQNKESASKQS
Experimental: Activity of human recombinant Aurora A (ThermoFisher, cat #PR5935A) was measured by quantification of adenosine diphosphate (ADP) using the ADP-Glo Kinase Assay Kit (Promega, cat #V9102). Test compounds were solubilized in dimethyl sulfoxide (DMSO) and dispensed into 384-well white polystyrene nonbinding plates (Greiner, cat #781094) using the Echo acoustic dispenser (Labcyte Inc.) in a 11-point 3-fold titration in duplicates. 5 μL of 5.0 nM Aurora A in assay buffer (50 mM HEPES, pH 7.5, 0.01% Brij-35, 0.01% BSA, 10 mM MgCl2, 1 mM EGTA, 1 mM DTT) was added to the plates. Test compounds and Aurora A were incubated for 15 minutes at room temperature (RT). Then 5 μL of a 40 μM adenosine triphosphate (ATP) (Promega, cat #V915B) and 9.3 μM Myelin Basic Protein (MBP) (SignalChem, cat #M42-51N) substrate solution in assay buffer was added and the reaction mixture was incubated for 2 hours at RT. The final concentration of Aurora A, ATP and MBP in the reactions were 2.5 nM, 20 μM and 4.7 μM, respectively. Reactions were stopped and the remaining ATP depleted by adding 10 μL of ADP-Glo reagent (Promega, cat #V912B) and incubating for 40 minutes at RT. The simultaneous conversion of the remaining ADP to ATP and measurement of the newly synthesized ATP was achieved by addition of 20 μL Kinase Detection reagent (Promega, cat #V914B), incubation for 30 min at RT, and luminescence detection using the EnVision plate reader (PerkinElmer). Reactions lacking Aurora A were used as 100% inhibition controls. Reactions containing DMSO alone were used as 0% inhibition controls. The IC50 values reported in Table 2 were determined using four parameter non-linear regression curve fit.

T1 sequence (Q96GD4 whole entry): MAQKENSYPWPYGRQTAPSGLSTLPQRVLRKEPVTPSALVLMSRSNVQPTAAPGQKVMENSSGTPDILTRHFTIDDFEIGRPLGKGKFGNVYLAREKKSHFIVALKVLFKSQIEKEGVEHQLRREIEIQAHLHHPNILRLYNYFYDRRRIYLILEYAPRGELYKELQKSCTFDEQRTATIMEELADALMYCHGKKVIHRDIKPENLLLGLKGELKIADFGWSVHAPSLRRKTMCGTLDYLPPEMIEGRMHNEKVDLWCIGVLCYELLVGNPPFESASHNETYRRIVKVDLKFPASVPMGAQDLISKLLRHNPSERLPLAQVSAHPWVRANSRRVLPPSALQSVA

Row | [Aurora B IC50 (nM)]/[PLK4 IC50 (nM)] [1] | [Aurora A IC50 (nM)]/[PLK4 IC50 (nM)] [2] | Compound
1 | 460 | 360 | COc1ccc2c(c1)[C@]1(C[C@H]1c1ccc3c(Nc4nc(-c5ncco5)cnc4OC)n[nH]c3c1)C(=O)N2 [Example 19, (1R,2S)-5′-methoxy-2-(3-{[3-methoxy-6-(1,3-oxazol-2-yl)pyrazin-2-yl]amino}-1H-indazol-6-yl)spiro[cyclopropane-1,3′-indol]-2′(1′H)-one]
2 | 120 | 170 | COc1ccc2c(c1)[C@]1(C[C@H]1c1ccc3c(Nc4nc(N(C)C)ncc4OC)n[nH]c3c1)C(=O)N2 [Example 20, (1R,2S)-2-(3-{[2-(dimethylamino)-5-methoxypyrimidin-4-yl]amino}-1H-indazol-6-yl)-5′-methoxyspiro[cyclopropane-1,3′-indol]-2′(1′H)-one]
3 | 990 | 1900 | COc1ccc2c(c1)[C@]1(C[C@H]1c1ccc3c(Nc4cc(-c5nnn(C)n5)ccc4OC)n[nH]c3c1)C(=O)N2 [Example 21, (1R,2S)-5′-methoxy-2-{3-[2-methoxy-5-(2-methyl-2H-tetrazol-5-yl)anilino]-1H-indazol-6-yl}spiro[cyclopropane-1,3′-indol]-2′(1′H)-one]
4 | 1017 | 2258.3629 | CCOc1cc(S(C)(=O)=O)ccc1Nc1n[nH]c2cc([C@@H]3C[C@@]34C(=O)N(C)c3ccc(OC)cc34)ccc12 [Example 23, (1R,2S)-2-{3-[2-ethoxy-4-(methanesulfonyl)anilino]-1H-indazol-6-yl}-5′-methoxy-1′-methylspiro[cyclopropane-1,3′-indol]-2′(1′H)-one]
5 | 263.2352 | 842.4019 | COc1ccc2c(c1)[C@]1(C[C@H]1c1ccc3c(Nc4nc(-c5cnn(C)c5)cnc4OC)n[nH]c3c1)C(=O)N2 [Example 24, (1R,2S)-5′-methoxy-2-(3-{[3-methoxy-6-(1-methyl-1H-pyrazol-4-yl)pyrazin-2-yl]amino}-1H-indazol-6-yl)spiro[cyclopropane-1,3′-indol]-2′(1′H)-one]
6 | 921.6946 | 992.1456 | COc1ccc2c(c1)[C@]1(C[C@H]1c1ccc3c(Nc4cc(-c5cnn(C)c5)cnc4OC)n[nH]c3c1)C(=O)N2 [Example 26, (1R,2S)-5′-methoxy-2-(3-{[2-methoxy-5-(1-methyl-1H-pyrazol-4-yl)pyridin-3-yl]amino}-1H-indazol-6-yl)spiro[cyclopropane-1,3′-indol]-2′(1′H)-one]
7 | 954.5884 | 360.5487 | COc1ccc2c(c1)[C@]1(C[C@H]1c1ccc3c(Nc4cc(-c5cnn(C)c5)ncc4OC)n[nH]c3c1)C(=O)N2 [Example 27, (1R,2S)-5′-methoxy-2-(3-{[5-methoxy-2-(1-methyl-1H-pyrazol-4-yl)pyridin-4-yl]amino}-1H-indazol-6-yl)spiro[cyclopropane-1,3′-indol]-2′(1′H)-one]
8 | 1526.5629 | 1135 | CCOc1ccc(-c2nccs2)nc1Nc1n[nH]c2cc([C@@H]3C[C@@]34C(=O)Nc3ccc(OC)cc34)ccc12 [Example 28, (1R,2S)-2-(3-{[3-ethoxy-6-(1,3-thiazol-2-yl)pyridin-2-yl]amino}-1H-indazol-6-yl)-5′-methoxyspiro[cyclopropane-1,3′-indol]-2′(1′H)-one]
9 | 211.2020 | 15611.2532 | CCOc1cc(-c2cn(C)cn2)ccc1Nc1n[nH]c2cc([C@@H]3C[C@@]34C(=O)Nc3ccc(OC)cc34)ccc12 [Example 29, (1R,2S)-2-{3-[2-ethoxy-4-(1-methyl-1H-imidazol-4-yl)anilino]-1H-indazol-6-yl}-5′-methoxyspiro[cyclopropane-1,3′-indol]-2′(1′H)-one]
10 | 1970.3298 | 916.8947 | COc1ccc2c(c1)[C@]1(C[C@H]1c1ccc3c(Nc4cc(-c5ccsn5)ccc4OC)n[nH]c3c1)C(=O)N2 [Example 30, (1R,2S)-5′-methoxy-2-{3-[2-methoxy-5-(1,2-thiazol-3-yl)anilino]-1H-indazol-6-yl}spiro[cyclopropane-1,3′-indol]-2′(1′H)-one]
11 | 429.3981 | 743.0555 | COc1ccc2c(c1)[C@]1(C[C@H]1c1ccc3c(Nc4nc(-c5cnn(C)c5)ncc4OC)n[nH]c3c1)C(=O)N2 [Example 31, (1R,2S)-5′-methoxy-2-(3-{[5-methoxy-2-(1-methyl-1H-pyrazol-4-yl)pyrimidin-4-yl]amino}-1H-indazol-6-yl)spiro[cyclopropane-1,3′-indol]-2′(1′H)-one]
12 | 1218.8633 | 325.6348 | COc1ccc2c(c1)[C@]1(C[C@H]1c1ccc3c(Nc4cc(-c5ccon5)ccc4OC)n[nH]c3c1)C(=O)N2 [Example 32, (1R,2S)-5′-methoxy-2-{3-[2-methoxy-5-(1,2-oxazol-3-yl)anilino]-1H-indazol-6-yl}spiro[cyclopropane-1,3′-indol]-2′(1′H)-one]
13 | 45644.0903 | 1496.6799 | CCOc1ccc(-c2nccs2)cc1Nc1n[nH]c2cc([C@@H]3C[C@@]34C(=O)Nc3ccc(OC)cc34)ccc12 [Example 33, (1R,2S)-2-{3-[2-ethoxy-5-(1,3-thiazol-2-yl)anilino]-1H-indazol-6-yl}-5′-methoxyspiro[cyclopropane-1,3′-indol]-2′(1′H)-one]
14 | 46598.3224 | 14827.5862 | CCOc1cnc(-c2nccs2)cc1Nc1n[nH]c2cc([C@@H]3C[C@@]34C(=O)Nc3ccc(OC)cc34)ccc12 [Example 34, (1R,2S)-2-(3-{[5-ethoxy-2-(1,3-thiazol-2-yl)pyridin-4-yl]amino}-1H-indazol-6-yl)-5′-methoxyspiro[cyclopropane-1,3′-indol]-2′(1′H)-one]
15 | 2740.5325 | 727.2189 | CCOc1ncc(-c2nccs2)nc1Nc1n[nH]c2cc([C@@H]3C[C@@]34C(=O)Nc3ccc(OC)cc34)ccc12 [Example 35, (1R,2S)-2-(3-{[3-ethoxy-6-(1,3-thiazol-2-yl)pyrazin-2-yl]amino}-1H-indazol-6-yl)-5′-methoxyspiro[cyclopropane-1,3′-indol]-2′(1′H)-one]
16 | 27839.6436 | 27839.6436 | CCOc1ccc(-c2cnn(C)c2)cc1Nc1n[nH]c2cc([C@@H]3C[C@@]34C(=O)Nc3ccc(OC)cc34)ccc12 [Example 37, (1R,2S)-2-{3-[2-ethoxy-5-(1-methyl-1H-pyrazol-4-yl)anilino]-1H-indazol-6-yl}-5′-methoxyspiro[cyclopropane-1,3′-indol]-2′(1′H)-one]
